ChEMBL document CHEMBL1142676, “Novel 2-alkylamino-1,4-benzoxazine derivatives as potent neuroprotective agents: structure-activity relationship studies” (J Med Chem, 2005)

Legend:
HT-22 [1] = test: In vitro safety index as ratio of MTC/PC50 was determined for HT-22 hippocampal cell cultures of mouse by LDH assay; type: functional
HT-22 [2] = test: In vitro safety index as ratio of MTC/PC50 was determined for HT-22 hippocampal cell cultures of mouse by MTT reduction assay; type: functional
HT-22 [3] = test: In vitro maximum tolerated concentration against HT-22 hippocampal cell cultures of mouse by LDH assay; type: functional
HT-22 [4] = test: In vitro maximum tolerated concentration against HT-22 hippocampal cell cultures of mouse by MTT reduction assay; type: functional
HT-22 [5] = test: In vitro protective concentration of compound for HT-22 hippocampal cell cultures of mouse against 2 mM L-homocysteic acid in LDH assay; type: functional
HT-22 [6] = test: In vitro protective concentration of compound for HT-22 hippocampal cell cultures of mouse against 2 mM L-homocysteic acid in MTT reduction assay; type: functional
HT-22 [7] = test: In vitro toxic concentration against HT-22 hippocampal cell cultures of mouse by LDH assay; type: functional; details: read-out: TC50 (the source's name)
HT-22 [8] = test: In vitro toxic concentration against HT-22 hippocampal cell cultures of mouse by MTT reduction assay; type: functional; details: read-out: TC50 (the source's name)
[9] = Partition coefficient (logP); type: physicochemical; details: octanol/water

| SMILES | Safety index (HT-22 [1]) | Safety index (HT-22 [2]) | MTC (HT-22 [3]) [µM] | MTC (HT-22 [4]) [µM] | PC50 (HT-22 [5]) [µM] | PC50 (HT-22 [6]) [µM] | CC50 (HT-22 [7]) [µM] | CC50 (HT-22 [8]) [µM] | logP [9] |
| --- | --- | --- | --- | --- | --- | --- | --- | --- | --- |
| O=C(c1ccccc1)c1ccc2c(c1O)NC1(CCCCC1)C(NCC1CCCCC1)O2 (configuration not stated) | 667 | 20.8 | 100 | 5 | 0.15 | 0.24 | > 250 | 16.5 |  |
| CC1(C)Nc2c(ccc(C(=O)c3ccccc3)c2O)OC1N1CCCCC1 (configuration not stated) | 24.4 | 3.1 | 100 | 10 | 4.1 | 3.2 | 120 | 72 |  |
| O=C(c1ccccc1)c1ccc(NCc2ccccc2)c2c1NC1(CCCC1)CO2 | >17.4 | >15.8 | >250 | >250 | 14.4 | 15.8 | > 250 | > 250 | 5.11 |
| CC1(C)Nc2c(ccc(C(=O)c3ccccc3)c2O)OC1NCCc1ccccc1 (configuration not stated) | 24.4 | 5 | 100 | 10 | 4.1 | 2 | 199 | 66 |  |
| O=C(c1ccccc1)c1ccc2c(c1O)NC1(CCCCC1)C(N1CCOCC1)O2 (configuration not stated) | 2.1 | 1.8 | 5 | 5 | 2.4 | 2.8 | 10.4 | 8.2 |  |
| O=C(c1ccccc1)c1ccc2c(c1O)NC1(CCCC1)C(NCC1CCCC1)O2 (configuration not stated) | 30.5 | 3.6 | 25 | 5 | 0.82 | 1.39 | 53 | 27 |  |
| CN(CC1OCCO1)C1Oc2ccc(C(=O)c3ccccc3)c(O)c2NC1c1ccccc1 (configuration not stated) | >250 | 200 | >250 | 100 | 1 | 0.5 | > 250 | > 250 | 5.57 |
| CC1(C)Nc2c(ccc(C(=O)c3ccccc3)c2O)OC1O (configuration not stated) | 91 | 10.3 | 100 | 10 | 1.1 | 0.97 | > 250 | 48 |  |
| CC1(C)Nc2c(ccc(C(=O)c3ccccc3)c2O)OC1NC1CCCCC1 (configuration not stated) | 47.6 | 4.2 | 100 | 10 | 2.1 | 2.4 | 120 | 29 |  |
| O=C(c1ccccc1)c1ccc2c(c1O)NC1(CCCCC1)C(O)O2 (configuration not stated) | 16.6 | 6.2 | 50 | 25 | 3 | 4 | > 250 | 178 |  |
| O=C(c1ccccc1)c1ccc2c(c1O)NC(c1ccccc1)C(NCC(c1ccccc1)c1ccccc1)O2 (configuration not stated) | >50 | >25 | >250 | >250 | 5 | 10 | > 250 | > 250 |  |
| COC(CNC1Oc2ccc(C(=O)c3ccccc3)c(O)c2NC1c1ccccc1)OC (configuration not stated) | >100 | 20 | >250 | 100 | 2.5 | 5 | > 250 | > 250 |  |
| CC1(C)Nc2c(ccc(C(=O)c3ccccc3)c2O)OC1N1CCOCC1 (configuration not stated) | 66.7 | 5.9 | 100 | 10 | 1.5 | 1.7 | 190 | 75 |  |
| CC(C)CNC1Oc2ccc(C(=O)c3ccccc3)c(O)c2NC1c1ccccc1 (configuration not stated) | 1 | <1 | 10 | 5 | 10 | 10 | 79 | 108 |  |
| O=C(c1ccccc1)c1ccc2c(c1O)NC1(CCCCC1)C(N1CCCCC1)O2 (configuration not stated) | >13.5 | 8.1 | >250 | 100 | 18.5 | 12.3 | > 250 | 250 |  |
| CC(C)(C)C1COc2c(NCCc3ccccc3)ccc(C(=O)c3ccccc3)c2N1 (configuration not stated) | >62.5 | >100 | >250 | >250 | 4 | 2.5 | > 250 | > 250 | 5.28 |
| CC(C)CNC1Oc2ccc(C(=O)c3ccccc3)c(O)c2NC1(C)C (configuration not stated) | 185 | 24.4 | 100 | 10 | 0.54 | 0.41 | 160 | 45 |  |
| CN(CC1OCCO1)C1Oc2ccc(C(=O)c3ccccc3)c(O)c2NC12CCCCC2 (configuration not stated) | 11.4 | 2 | 25 | 5 | 2.2 | 2.4 | > 250 | 25 |  |
